Laboratory results published in patent US20040192638A1, “Method and composition for prolonging the residence time of drugs in the gut” (priority 2001, published 2004).
Entries after “also recorded” stand apart in the source; their conditions may differ.

How the values were obtained:
Type in all cases: in vivo
rat small intestine [1] = assay: Sustained Spike Potential (SSP) myoelectric bioassay, infusion into the duodenum via cannula in instrumented uninfected rats
Description: Outbred male rats (Sprague Dawley, Harlan Sprague Dawley, Inc., Indianapolis, Ind.) were housed singly and maintained on a 12-hour light/12-hour dark cycle. All rats used in the bioassay procedure were uninfected with tapeworms. The design and surgical implantation procedure of the intestinal extracellular bipolar electrodes have been described previously (Dwinell et al., 1994, 1997). Briefly, four bipolar electrodes were surgically sutured to the intestinal serosa of each rat according to the methods of Dwinell et at. (1994), which is incorporated herein by reference. Three electrodes (J1-J3) were implanted on the jejunum at 10 cm intervals, with the first electrode (J1) placed 10 cm caudal from the ligament of Treitz and proceeding caudally with J2 and J3. A fourth electrode (designated “I” because it was placed within the ileum) was placed 20 cm orad from the ileo-caecal junction. In addition, a cannula was implanted with one end residing in the lumen of the mid-duodenum, whereas the other end was exteriorized to allow infusion of test fractions.
All compounds tested were infused into the duodenum via the cannula. Compounds were delivered in 0.2 ml aliquots followed immediately by a 0.2 ml saline cannula rinse. These volumes were used in order to prevent muscle contraction due to stretch from larger bolus volumes. To observe the induction of SSP, intestinal myoelectric activity was recorded for 90 minutes following infusion.
Consistent with the protocol of Dwinell et al. (1994), intestinal myoelectric activity was not recorded for the first five days after implantation surgery. Control recordings were taken after this period to assure the return of normal myoelectric patterns of the MMC following the cessation of post-surgical ileus. Periodic “control” recordings were made with saline on the intervening days between the tests with tapeworm-conditioned medium (TCM) or its fractions.
In vivo intestinal myoelectric activity was recorded with a polygraph chart recorder (Grass Instruments, Quincy, Mass.). The myoelectric signal from each electrode was simultaneously recorded on paper and by a personal computer with an I/O board and WINDAQ software (Dataq Instruments, Akron, Ohio) connected to the polygraph recorder by an analog-to-digital converter (Dataq Instruments).
Food was removed on each recording day at 0800 hour to prevent animal feeding and the subsequent disruption of the interdigestive myoelectric pattern. Recording occurred between 1300 and 1900 hours. All recording sessions for each animal were at least 1.5 hour in duration, and all animals were recorded while awake and unrestrained. Vehicle (0.9% saline or in some cases RPMI 1640) was used as control for test substances.
Five days after electrode and cannula implantation surgery, three consecutive baseline 90-minute recordings were made on separate days in each rat to confirm the presence of normal intestinal myoelectric activity at the end of the immediate post surgical period.
Secreted compounds were infused via the duodenal cannula and the frequency of the sustained spike potential (SSP) electrical patterns was determined from recordings of myoelectric activity. […] The third and final phase of the MMC (marked by arrowheads) is a period of >90% spiking and represents a series of contractions migrating orad to caudad along the small intestine. The caudad migration of phase III between electrode sites propels lumenal content toward the caecum.
Cyclic nucleotides were degraded to their 5′-monophosphate derivatives by incubation with bovine brain phosphodiesterase (PDE; cat. # P-0134, Sigma Co., St. Louis, Mo.).

[2] = test system: Male Ross x Ross broiler chicks; assay: Effect of cGMP on feed conversion ratio in broiler chicks
Procedure: cGMP for use in this Example was manufactured by ICN Biomedicals (Irvine, Calif.), and purchased from Fisher Scientific (Hampton, N.H.). Male Ross x Ross broiler chicks were obtained from Sunnyside Hatchery (Beaver Dam, Wis.). Standard commercial chick mash was used as a base ration. cGMP with and without succinate was dissolved in water and sprayed as a mist onto the basal diet during continuous mixing. […] Diets were prepared 1 to 3 days prior to the start of the experiment and stored in individual plastic buckets (1 bucket/replicate). Chicks were randomly placed into treatment groups with 5 birds per replicate. Chicks were weighed as a group, so each pen of 5 animals represents n=1. Treatments and replicates were randomly assigned (via a random number generator) to pens. Chicks were fed ad libitum and checked daily. Feed intake and pen weight were recorded weekly. Feed conversion ratios were calculated as grams of feed consumed/grams of weight gain in the animals. […] The results are shown in Table 2 for two sets of experiments. Experiment 1 was to run for 3 weeks, but was accidentally disrupted during the third week.

rat small intestine [3] = assay: Effect of cGMP combined with succinate on SSP frequency (Example 3); conditions: for SSP stimulation (in words): FIG. 5
Procedure: In order to measure intestinal motility, rats were prepared as per […] et al. (1994) as described in the prior Examples. Briefly, electrodes were implanted along the length of the intestine to allow observation of intestinal muscle contraction, and a cannula was implanted in the duodenum to permit the infusion of test substances. After normal intestinal motility was established in each rat, test substances were infused through the duodenal cannula, and myoelectric recordings were used to observe the occurrence of SSP.

rat small intestine [4] = assay: SSP myoelectric recording after intragastric (per os) or intraperitoneal cGMP; conditions: data not shown
Procedure: For intragastric infusion, rats (n=4) were lightly sedated with Halothane in order to insert a gastric tube per os and infused with 0.3 ml of 10 mM cGMP in saline directly into the lumen of the stomach. Thirty minutes of control myoelectric recording were always performed before infusion of any substance. Five to seven minutes after infusion, the rats were reconnected to the recorder. […] This procedure was repeated with the same rats on a different day with 0.3 ml 100 mM cGMP (equal to 100× the minimal dose required to increase SSP frequency by infusion into the lumen of the small intestine) and on a separate day with 0.3 ml saline as a vehicle control. Post-oral dosing myoelectric recordings were 90 minutes in duration.
Neither cGMP (1.0 ml of 100 mM) injected intraperitoneally nor cGMP (0.3 ml of 10 mM and 100 mM) introduced into the stomach per os initiated the SSP pattern in the small intestine (data not shown).

[5] = Experiment 1, per pen of 5 chicks, 10 mg cGMP/kg of feed and/or 100 mg succinate/kg of feed, terminated after week 2
[6] = Experiment 2, grams of feed consumed/grams of weight gain

Nc1nc2c(ncn2C2OC3COP(=O)(O)OC3C2O)c(=O)[nH]1 (stereo not shown) [cGMP, guanosine cyclic 3′, 5′-hydrogen phosphate]
SSP/Hr (MEAN ± SE) (rat small intestine [1]; 100 nM, 0.2 ml infused into duodenum): 0 SSP/Hr
SSP/Hr (MEAN ± SE) (rat small intestine [1]; 1 μM, 0.2 ml infused into duodenum): 0 SSP/Hr
SSP/Hr (MEAN ± SE) (rat small intestine [1]; 10 μM, 0.2 ml infused into duodenum): 0.5 ± 0.25 SSP/Hr
SSP/Hr (MEAN ± SE) (rat small intestine [1]; 100 μM, 0.2 ml infused into duodenum): 0.66 ± 0.38 SSP/Hr
SSP/Hr (MEAN ± SE) (rat small intestine [1]; 1 mM, 0.2 ml infused into duodenum): 0.80 ± 0.18 SSP/Hr
SSP/Hr (MEAN ± SE) (rat small intestine [1]; 5 mM, 0.2 ml infused into duodenum): 1.60 ± 0.38 SSP/Hr
SSP/Hr (MEAN ± SE) (rat small intestine [1]; 10 mM + 1 Unit PDE (incubated 30° C. 16 hours before infusion)): 0 SSP/Hr
ability to stimulate SSP after incubation with phosphodiesterase (PDE) before infusion (in words) (rat small intestine [1]; 10 mM cGMP solution or TCM incubated in PDE before bioassay): lose their ability to stimulate SSP; also recorded: control values
SSP/Hr (MEAN ± SE) (rat small intestine [1]; 10 mM, 0.2 ml infused into duodenum): 2.0 ± 0.38 SSP/Hr
SSP frequency compared with saline controls / background (in words) (rat small intestine [1]; 10 mM, 0.2 ml infused into intestinal lumen, FIG. 3): significantly increased
SSP/Hr (MEAN ± SE) (rat small intestine [1]; 10 mM, boiled before infusion): 1.0 ± 0.47 SSP/Hr
SSP/Hr (MEAN ± SE) (rat small intestine [1]; 100 mM, 0.2 ml infused into duodenum): 1.50 ± 0.46 SSP/Hr
SSP/Hr (MEAN ± SE) (rat small intestine [1]; 0.5 M, 0.2 ml infused into duodenum): 1.25 ± 0.41 SSP/Hr
lumenal dose range with significant increase in SSP frequency (rat small intestine [1]; FIG. 2, versus saline, Student t-test): 1 to 100 mM
stimulation / induction of SSP above background levels (in words) (rat small intestine [1]; infused into intestinal lumen, concentration not stated at the place): initiated SSP myoelectric patterns
Feed Conversion Ration FCR ([2]; Experiment 1, grams of feed consumed/grams of weight gain): 1.535 ± 0.094
Feed Intake [2, 5]: 2334 ± 144
Gain [2, 5]: 1548 ± 65
FCR Week 1 [2, 6]: 1.635 ± 0.093
FCR Week 2 [2, 6]: 1.459 ± 0.058
FCR Week 3 [2, 6]: 1.580 ± 0.059
SSP stimulation (in words) (rat small intestine [3]; 2.8 nM cGMP alone): did not stimulate SSP above the background; also recorded: generally does not produce
SSP stimulation (in words) (rat small intestine [3]; 10 mM cGMP alone): produces
concentrations of cGMP alone incapable of stimulating SSP (rat small intestine [3]; cGMP infused alone): below 1 mM
cGMP concentration required to activate SSP response (rat small intestine [3]; without succinate): about 10 mM
initiation of SSP pattern in the small intestine (in words) (rat small intestine [4]; 0.3 ml of 10 mM into the stomach per os): lack of intestinal response
initiation of SSP pattern in the small intestine (in words) (rat small intestine [4]; 0.3 ml of 100 mM into the stomach per os): lack of intestinal response
initiation of SSP pattern in the small intestine (in words) (rat small intestine [4]; 1.0 ml of 100 mM injected intraperitoneally): lack of intestinal response
